Experimental data reported in patent US9409914B2, “Triazolo[4,5-d]pyrimidine derivatives” (Merck Patent GmbH, priority 2012, dated 2016).

Experiments:
GCN2 [1] = target: T1, GCN2 (Homo sapiens, UniProt Q9P2K8); assay: Cellular assay for GCN2 activity (phospho-eIF2alpha immunocytochemistry, tryptophanol-stimulated U2OS cells); format: cell-based; parameters: endogenous in cells; host or cells: U2OS; details: 2 hours compound, then 600 μM tryptophanol 30 minutes, anti-phospho-eIF2alpha, read-out: IC50 GCN2 (cell assay)
Protocol: Cellular Assay for the Determination of Compound Activities
Human U2OS cells (2000 cells/well) are seeded into 384-well plates and incubated for 20 hours.
The next day, the cells are treated with the test compounds and incubated for 2 hours. Then, tryptophanol, at a final concentration of 600 μM, is added to the cells and those are incubated for 30 minutes.
The analysis of cellular GCN2 activities is done by immunocytochemistry. Briefly, cells are fixated on the well surfaces by formaldehyde and permeabilised with Triton X-100. The primary antibody (anti-phospho-eIF2alpha (Ser51, Cell Signalling Technology, #3398) is incubated on the treated cells for 20 hours, followed by a 60 minutes incubation of the secondary antibody (anti-rabbit-IgG-Alexa 488; Molecular Probes #11008). The analysis and quantification of phosphorylated GCN2 is done by scanning the plates in the Acumen Explorer system (TTPLabtech). The obtained data are normalised against the untreated control wells (DMSO only) and expressed as % effect values. The determination of IC50 values is done by using the Graph Pad Prism software.
Target sequence in this assay (Q9P2K8 whole entry): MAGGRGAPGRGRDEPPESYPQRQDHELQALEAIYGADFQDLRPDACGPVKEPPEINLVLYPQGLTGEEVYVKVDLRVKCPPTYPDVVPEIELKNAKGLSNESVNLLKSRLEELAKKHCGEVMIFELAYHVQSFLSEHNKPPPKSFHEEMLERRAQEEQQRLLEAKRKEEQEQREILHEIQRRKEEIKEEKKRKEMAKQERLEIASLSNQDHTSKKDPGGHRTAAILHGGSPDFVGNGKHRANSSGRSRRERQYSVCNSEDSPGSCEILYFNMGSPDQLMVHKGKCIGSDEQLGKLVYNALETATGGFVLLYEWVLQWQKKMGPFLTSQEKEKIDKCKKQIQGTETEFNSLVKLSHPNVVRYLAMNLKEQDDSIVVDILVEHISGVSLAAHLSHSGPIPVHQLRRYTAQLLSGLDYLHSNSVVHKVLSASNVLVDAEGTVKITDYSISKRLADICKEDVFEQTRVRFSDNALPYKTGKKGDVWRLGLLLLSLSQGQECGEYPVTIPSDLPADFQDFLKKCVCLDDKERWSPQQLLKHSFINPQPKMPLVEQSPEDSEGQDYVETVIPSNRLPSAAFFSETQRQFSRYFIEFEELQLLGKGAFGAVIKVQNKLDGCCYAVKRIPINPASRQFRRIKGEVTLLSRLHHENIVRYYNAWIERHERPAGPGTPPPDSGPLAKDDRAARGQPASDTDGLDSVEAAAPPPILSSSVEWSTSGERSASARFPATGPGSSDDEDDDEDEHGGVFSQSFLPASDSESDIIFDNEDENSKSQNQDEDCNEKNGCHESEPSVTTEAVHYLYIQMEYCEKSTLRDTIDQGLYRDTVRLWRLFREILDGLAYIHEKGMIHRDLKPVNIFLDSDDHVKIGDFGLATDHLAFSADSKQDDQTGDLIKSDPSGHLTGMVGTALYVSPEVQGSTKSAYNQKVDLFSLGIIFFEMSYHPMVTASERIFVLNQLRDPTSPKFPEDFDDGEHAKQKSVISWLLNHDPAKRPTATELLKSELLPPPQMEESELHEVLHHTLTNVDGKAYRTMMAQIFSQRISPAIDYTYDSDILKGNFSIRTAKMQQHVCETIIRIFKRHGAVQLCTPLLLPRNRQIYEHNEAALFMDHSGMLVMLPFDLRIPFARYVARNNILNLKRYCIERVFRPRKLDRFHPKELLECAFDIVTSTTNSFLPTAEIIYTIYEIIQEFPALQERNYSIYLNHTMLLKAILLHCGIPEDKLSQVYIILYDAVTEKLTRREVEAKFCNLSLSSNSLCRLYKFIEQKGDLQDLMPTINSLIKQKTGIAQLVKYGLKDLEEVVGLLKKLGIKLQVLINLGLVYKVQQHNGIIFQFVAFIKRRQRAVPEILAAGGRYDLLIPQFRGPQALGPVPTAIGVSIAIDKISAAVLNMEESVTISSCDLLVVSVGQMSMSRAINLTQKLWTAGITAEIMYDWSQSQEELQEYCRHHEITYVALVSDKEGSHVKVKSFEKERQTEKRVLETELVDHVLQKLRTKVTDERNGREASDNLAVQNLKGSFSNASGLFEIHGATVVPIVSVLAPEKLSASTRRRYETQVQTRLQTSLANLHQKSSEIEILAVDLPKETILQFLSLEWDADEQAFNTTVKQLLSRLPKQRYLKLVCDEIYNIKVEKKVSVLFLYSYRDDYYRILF

GCN2 [2] = target: T1, GCN2; assay: GCN2 enzyme assay (TR-FRET Lanthascreen, phosphorylation of GFP-eIF2alpha); format: biochemical; details: 10 μM ATP, 80 nM GFP-eIF2alpha, 30 nM GCN2, room temperature
Excerpt: GCN2: Assay principle & conditions
This assay can quantificate the activity of the serin kinase GCN2 (general control non-derepressible-2).
This kinase is involved in the stress metabolism of cells. It is activated upon starvation (amino acid depletion). Its natural substrate is eIF2a (eukaryotic initiation factor 2 alpha subunit), a translation factor, which gets activated (phosphorylated) by GCN2 in case of an amino acid bottleneck in the cells. This in turn leads to a halt of the protein synthesis. Inhibition of GCN2 results in stopping this mechanism: The cell can not stop protein production upon “starvation” stress.
The assay is run in two steps: the enzymatic reaction and the detection step. In the first step GCN2 is incubated with 10 μM ATP and 80 nM of the GFP-labelled substrate eIF2alpha at room temperature.
The enzymatic reaction is stopped by addition of EDTA. The amount of phosphorylated eIF2alpha is determined by TR-FRET (Lanthascreen): A complex is formed consisting of antibody and GFP labelled phospho-eIF2a, which allows a FRET upon exitation at 340 nm.
The GCN2-activity is directly proportional to the ratio of fluorescence units at the emission wavelengthh 520 nm (phosphopeptide-sensitive wavelength=emission of GFP) to the units at 495 nm (reference wavelength=emission of Terbium-chelate).
Final Concentrations in the Enzymatic Reaction
Target sequence in this assay (Q9P2K8 whole entry, species assumed): as the sequence (Q9P2K8 whole entry) above

Row | SMILES | IC50 (GCN2 [1]) [µM] | IC50 (GCN2 [2]) [µM]
1 | OC[C@@H]1C[C@H]1Cn1cc(Nc2ncc3nnn(-c4ccc(Cl)c(F)c4)c3n2)cn1 (relative stereo) [Compound A98, ((trans)-2-{4-[3-(4-chloro-3-fluoro-phenyl)-3H-[1,2,3]triazolo[4,5-d]pyrimidin-5-ylamino]-pyrazol-1-ylmethyl}-cyclopropyl)-methanol] | 0.3 to 3 | < 0.3
2 | COc1ccc(-n2nnc3cnc(Nc4cnn(-c5ccccc5)c4)nc32)cc1 [Compound A1, [3-(4-methoxy-phenyl)-3H-[1,2,3]triazolo[4,5-d]pyrimidin-5-yl]-(1-phenyl-1H-pyrazol-4-yl)-amine] | 3 to 50 | 0.3 to 3
3 | COc1ccc(-n2nnc3cnc(Nc4cn[nH]c4)nc32)cc1 [Compound A3, [3-(4-methoxy-phenyl)-3H-[1,2,3]triazolo[4,5-d]pyrimidin-5-yl]-(1H-pyrazol-4-yl)-amine] | 3 to 50 | < 0.3
4 | c1ccc(-n2nnc3cnc(Nc4cn[nH]c4)nc32)cc1 [Compound A4, (3-phenyl-3H-[1,2,3]triazolo[4,5-d]pyrimidin-5-yl)-(1H-pyrazol-4-yl)-amine] | 3 to 50 | < 0.3
5 | COc1ccc(-n2nnc3cnc(Nc4cnn(C5CCNCC5)c4)nc32)cc1 [Compound A6, [3-(4-methoxy-phenyl)-3H-[1,2,3]triazolo[4,5-d]pyrimidin-5-yl]-(1-piperidin-4-yl-1H-pyrazol-4-yl)-amine] | 0.3 to 3 | < 0.3
6 | COc1ccc(-n2nnc3cnc(Nc4cnn(C5CCN(C)CC5)c4)nc32)cc1 [Compound A8, [3-(4-methoxy-phenyl)-3H-[1,2,3]triazolo[4,5-d]pyrimidin-5-yl]-[1-(1-methyl-piperidin-4-yl)-1H-pyrazol-4-yl]-amine] | 0.3 to 3 | < 0.3
7 | CN1CCC(n2cc(Nc3ncc4nnn(-c5ccccc5)c4n3)cn2)CC1 [Compound A11, [1-(1-methyl-piperidin-4-yl)-1H-pyrazol-4-yl]-(3-phenyl-3H-[1,2,3]triazolo[4,5-d]pyrimidin-5-yl)-amine] | 0.3 to 3 | 0.3 to 3
8 | COc1ccc(-n2nnc3cnc(Nc4cnn(C5COC5)c4)nc32)cc1 [Compound A23, 3-(4-methoxyphenyl)-N-[1-(oxetan-3-yl)pyrazol-4-yl]triazolo[4,5-d]pyrimidin-5-amine] | 0.3 to 3 | < 0.3
9 | COCCN1CCC(n2cc(Nc3ncc4nnn(-c5ccc(OC)cc5)c4n3)cn2)CC1 [Compound A26, N-[1-[1-(2-methoxyethyl)-4-piperidyl]pyrazol-4-yl]-3-(4-methoxyphenyl)triazolo[4,5-d]pyrimidin-5-amine] | 0.3 to 3 | < 0.3
10 | NS(=O)(=O)c1ccc(-n2nnc3cnc(Nc4cnn(CCn5cccn5)c4)nc32)cc1 [Compound A135, 4-{5-[1-(2-pyrazol-1-yl-ethyl)-1H-pyrazol-4-ylamino]-[1,2,3]triazolo[4,5-d]pyrimidin-3-yl)-benzenesulfonamide] | – | < 0.3
11 | CN1CCC(n2cc(Nc3ncc4nnn(-c5ccc(S(=O)(=O)N6CCCC6)cc5)c4n3)cn2)CC1 [Compound A136, [1-(1-methyl-piperidin-4-yl)-1H-pyrazol-4-yl]-{3-[4-(pyrrolidine-1-sulfonyl)-phenyl]-3H-[1,2,3]triazolo[4,5-d]pyrimidin-5-yl}-amine] | – | 0.3 to 3
12 | COc1ccc(-n2nnc3cnc(Nc4cnn([C@H]5CC[C@@H](O)CC5)c4)nc32)cn1 [Compound A137, 4-{4-[3-(6-methoxy-pyridin-3-yl)-3H-[1,2,3]triazolo[4,5-d]pyrimidin-5-ylamino]-pyrazol-1-yl}-cyclohexanol] | – | 0.3 to 3

Now from value to compound:

Row | IC50 (GCN2 [1]) [µM] | IC50 (GCN2 [2]) [µM] | SMILES
13 | – | < 0.3 | COc1ccc(-n2nnc3cnc(Nc4cnn(N5CCOCC5=O)c4)nc32)cc1 [Compound A138, 4-{4-[3-(4-methoxy-phenyl)-3H-[1,2,3]triazolo[4,5-d]pyrimidin-5-ylamino]-pyrazol-1-yl}-morpholin-3-one]
14 | – | 0.3 to 3 | CN1CCC(n2cc(Nc3ncc4nnn(-c5ccn(C)n5)c4n3)cn2)CC1 [Compound A139, [1-(1-methyl-piperidin-4-yl)-1H-pyrazol-4-yl]-[3-(1-methyl-1H-pyrazol-3-yl)-3H-[1,2,3]triazolo[4,5-d]pyrimidin-5-yl]-amine]
15 | – | 0.3 to 3 | CCOc1ccc(-n2nnc3cnc(Nc4cc(-c5cnn(C)c5C)n[nH]4)nc32)cc1 [Compound A140, (1′,5′-dimethyl-1H,1′H-[3,4′]bipyrazolyl-5-yl)-[3-(4-ethoxy-phenyl)-3H-[1,2,3]triazolo[4,5-d]pyrimidin-5-yl]-amine]
16 | – | < 0.3 | COc1ccc(-n2nnc3cnc(Nc4cnn([C@H]5CC[C@@H](O)CC5)c4)nc32)nc1 [Compound A141, 4-{4-[3-(5-methoxy-pyridin-2-yl)-3H-[1,2,3]triazolo[4,5-d]pyrimidin-5-ylamino]-pyrazol-1-yl}-cyclohexanol]
17 | – | < 0.3 | CN1CCC(n2cc(Nc3ncc4nnn(-c5ccc(S(N)(=O)=O)cc5)c4n3)cn2)CC1 [Compound A142, 4-{5-[1-(1-methyl-piperidin-4-yl)-1H-pyrazol-4-ylamino]-[1,2,3]triazolo[4,5-d]pyrimidin-3-yl}-benzenesulfonamide]
18 | – | < 0.3 | COc1ccc(-n2nnc3cnc(Nc4cnn([C@H]5CC[C@H](O)CC5)c4)nc32)nc1 [Compound A143, 4-{4-[3-(5-methoxy-pyridin-2-yl)-3H-[1,2,3]triazolo[4,5-d]pyrimidin-5-ylamino]-pyrazol-1-yl}-cyclohexanol]
19 | – | < 0.3 | CC(C)(F)c1ccc(-n2nnc3cnc(Nc4cnn(C5CCOCC5)c4)nc32)cc1 [Compound A144, {3-[4-(1-fluoro-1-methyl-ethyl)-phenyl]-3H-[1,2,3]triazolo[4,5-d]pyrimidin-5-yl}-[1-(tetrahydro-pyran-4-yl)-1H-pyrazol-4-yl]-amine]
20 | – | 0.3 to 3 | O=C1COCCN1n1cc(Nc2ncc3nnn(-c4ccc5cccnc5c4)c3n2)cn1 [Compound A145, 4-[4-(3-quinolin-7-yl-3H-[1,2,3]triazolo[4,5-d]pyrimidin-5-ylamino)-pyrazol-1-yl]-morpholin-3-one]
21 | – | 0.3 to 3 | Cn1ccc(-n2nnc3cnc(Nc4cnn(C5CCOCC5)c4)nc32)n1 [Compound A147, [3-(1-methyl-1H-pyrazol-3-yl)-3H-[1,2,3]triazolo[4,5-d]pyrimidin-5-yl]-[1-(tetrahydro-pyran-4-yl)-1H-pyrazol-4-yl]-amine]
22 | – | 0.3 to 3 | CCn1cc(Nc2ncc3nnn(-c4ccc(C(C)(C)N)cc4)c3n2)cn1 [Compound A148, {3-[4-(1-amino-1-methyl-ethyl)-phenyl]-3H-[1,2,3]triazolo[4,5-d]pyrimidin-5-yl}-(1-ethyl-1H-pyrazol-4-yl)-amine]
23 | – | < 0.3 | CCOc1ccc(-n2nnc3cnc(Nc4cnn(CCN5CCOCC5=O)c4)nc32)cc1 [Compound A149, 4-(2-{4-[3-(4-ethoxy-phenyl)-3H-[1,2,3]triazolo[4,5-d]pyrimidin-5-ylamino]-pyrazol-1-yl}-ethyl)-morpholin-3-one]
24 | – | < 0.3 | CCOc1ccc(-n2nnc3cnc(Nc4cnn(C5CN(C(=O)COC)C5)c4)nc32)cc1 [Compound A150, 1-(3-{4-[3-(4-ethoxy-phenyl)-3H-[1,2,3]triazolo[4,5-d]pyrimidin-5-ylamino]-pyrazol-1-yl}-azetidin-1-yl)-2-methoxy-ethanone]
25 | – | < 0.3 | CCOc1ccc(-n2nnc3cnc(Nc4cnn(CCN5CCC(O)C5)c4)nc32)cc1 (stereo not shown) [Compound A151, 1-(2-{4-[3-(4-ethoxy-phenyl)-3H-[1,2,3]triazolo[4,5-d]pyrimidin-5-ylamino]-pyrazol-1-yl}-ethyl)-pyrrolidin-3-ol]
26 | – | < 0.3 | CC(C)(N)c1ccc(-n2nnc3cnc(Nc4cnn(C5CCOCC5)c4)nc32)cc1 [Compound A152, {3-[4-(1-amino-1-methyl-ethyl)-phenyl]-3H-[1,2,3]triazolo[4,5-d]pyrimidin-5-yl}-[1-(tetrahydro-pyran-4-yl)-1H-pyrazol-4-yl]-amine]
27 | – | < 0.3 | CN1CCC(n2cc(Nc3ncc4nnn(-c5ccc(Cl)cc5)c4n3)cn2)CC1 [Compound A153, [3-(4-chloro-phenyl)-3H-[1,2,3]triazolo[4,5-d]pyrimidin-5-yl]-[1-(1-methyl-piperidin-4-yl)-1H-pyrazol-4-yl]-amine]
28 | – | 0.3 to 3 | CS(=O)(=O)N1CCC(n2cc(Nc3ncc4nnn(-c5ccc(F)c(Cl)c5)c4n3)cn2)CC1 [Compound A154, [3-(3-chloro-4-fluoro-phenyl)-3H-[1,2,3]triazolo[4,5-d]pyrimidin-5-yl]-[1-(1-methanesulfonyl-piperidin-4-yl)-1H-pyrazol-4-yl]-amine]
